Test results taken from PubChem BioAssay (NCI).
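Following 48 hours of exposure in 96-well plates, responses at five concentrations were used to interpolate endpoints linearly. GI50 = concentration required for 50% inhibition of growth. TGI: concentration producing complete growth inhibition.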

Assays:
Test in all cases: NCI-60 cell line screen, 48 h
KM20L2 colon = system: KM20L2 colon
DMS 114 small cell lung = system: DMS 114 small cell lung
M19-MEL melanoma = system: M19-MEL melanoma
DMS 273 small cell lung = system: DMS 273 small cell lung
HOP-18 NSCLC = system: HOP-18 NSCLC
MDA-MB-435 = system: MDA-MB-435
BT-549 breast = system: BT-549 breast
T-47D breast = system: T-47D breast
MCF7 breast = system: MCF7 breast
MDA-MB-231 breast = system: MDA-MB-231 breast

COc1cc(C(C)c2cc3c(cc2OCCOCCOc2cc4c(cc2C(C)c2cc(OC)c(OC)c(OC)c2)OCO4)OCO3)cc(OC)c1OC (stereo not given)
GI50 (KM20L2 colon): > 100 µM
TGI (KM20L2 colon): > 100 µM
GI50 (DMS 114 small cell lung): > 100 µM
TGI (DMS 114 small cell lung): > 100 µM
GI50 (M19-MEL melanoma): > 100 µM
TGI (M19-MEL melanoma): > 100 µM
TGI (DMS 273 small cell lung): > 10 µM
TGI (HOP-18 NSCLC): > 10 µM

O=S(O)CCCCSSCCCCS(=O)(O)=S
TGI (KM20L2 colon): > 100 µM
TGI (DMS 114 small cell lung): > 100 µM
TGI (M19-MEL melanoma): > 100 µM
TGI (DMS 273 small cell lung): > 100 µM
TGI (HOP-18 NSCLC): > 100 µM

COc1ccc2c(CCNS(=O)(=O)c3ccccc3)c(C(C)=O)[nH]c2c1[N+](=O)[O-]
TGI (KM20L2 colon): > 100 µM
TGI (DMS 273 small cell lung): > 100 µM

O=C(O)c1cc2c3c(c1)[C@H]1C=CC[C@H]1CN3CC1CC=CC21 (stereo not given in full)
TGI (KM20L2 colon): > 100 µM
TGI (DMS 114 small cell lung): > 100 µM
TGI (M19-MEL melanoma): > 100 µM
TGI (DMS 273 small cell lung): > 100 µM
TGI (HOP-18 NSCLC): > 100 µM

CC(=O)N1C(=O)C(=O)c2cc(Cl)ccc21
TGI (DMS 114 small cell lung): > 100 µM
TGI (M19-MEL melanoma): > 100 µM
TGI (DMS 273 small cell lung): > 100 µM
TGI (HOP-18 NSCLC): > 100 µM

CCC(=O)[O-].CCC(=O)[O-].N.N.N.N.[Co+3].[O-][Cl+3]([O-])([O-])[O-]
GI50 (KM20L2 colon): > 100 µM
TGI (KM20L2 colon): > 100 µM
GI50 (DMS 273 small cell lung): > 100 µM
TGI (DMS 273 small cell lung): > 100 µM

CC(C)c1cccc2sc(NC(=O)C(=O)CC(=O)c3ccc(F)cc3)nc12
TGI (KM20L2 colon): > 100 µM
TGI (DMS 114 small cell lung): > 100 µM
TGI (M19-MEL melanoma): > 100 µM
TGI (DMS 273 small cell lung): > 100 µM

COc1ccc2c3c([nH]c2c1[N+](=O)[O-])C(C)N(C(=O)/C=C/c1ccccc1)CC3 (stereo not given)
TGI (KM20L2 colon): > 100 µM
TGI (DMS 273 small cell lung): 7.77 µM

CP(=O)(CCSc1ccccc1)c1ccccc1 (stereo not given)
TGI (KM20L2 colon): > 100 µM
TGI (DMS 114 small cell lung): > 100 µM
TGI (M19-MEL melanoma): > 100 µM
TGI (DMS 273 small cell lung): > 100 µM
TGI (HOP-18 NSCLC): > 100 µM

C/C(CC(=O)Nc1ccc(C)cc1)=N\NC(N)=S
TGI (KM20L2 colon): > 100 µM
TGI (DMS 114 small cell lung): > 100 µM
TGI (M19-MEL melanoma): > 100 µM

CC1=C(CC/C(C)=C/CCC2(C)CCC([C@H](C)C(=O)O)OO2)C(C)(C)CCC1 (stereo not given in full) (tested in a mixture with another compound)
TGI (KM20L2 colon): > 100 µM
TGI (DMS 114 small cell lung): > 100 µM
TGI (M19-MEL melanoma): > 100 µM
TGI (DMS 273 small cell lung): > 100 µM

CC(=O)C1C(=O)C(=O)N(c2ccc(Cl)cc2C)C1=O (stereo not given)
TGI (KM20L2 colon): > 100 µM
TGI (DMS 114 small cell lung): > 100 µM
TGI (M19-MEL melanoma): > 100 µM
TGI (HOP-18 NSCLC): > 100 µM

NC(N)=NS(=O)(=O)c1ccc(NC(=O)c2ccc(Cl)c3c(Nc4ccc(S(=O)(=O)N=C(N)N)cc4)c4ccccc4nc23)cc1
TGI (KM20L2 colon): > 100 µM
TGI (DMS 114 small cell lung): > 100 µM
TGI (M19-MEL melanoma): > 100 µM
TGI (DMS 273 small cell lung): > 100 µM
TGI (HOP-18 NSCLC): > 100 µM

CN1NC(c2ccccc2)=C(C#N)C(=O)CC1c1ccccc1Cl (stereo not given)
TGI (DMS 114 small cell lung): > 100 µM
TGI (DMS 273 small cell lung): > 100 µM
TGI (HOP-18 NSCLC): > 100 µM

CCCCC/C=C1\CCC(CN2CCOCC2)C1=O (stereo not given)
TGI (MDA-MB-435): 17.8 µM
TGI (BT-549 breast): 32.3 µM
TGI (KM20L2 colon): 19 µM
TGI (DMS 114 small cell lung): 38.5 µM
TGI (T-47D breast): 9.95 µM
TGI (M19-MEL melanoma): > 54.8 µM
TGI (HOP-18 NSCLC): 27.5 µM
TGI (MCF7 breast): 7.73 µM
TGI (MDA-MB-231 breast): > 23.2 µM

CCCCCCCCCCSS(=O)(=O)c1ccc(C)cc1
TGI (KM20L2 colon): 33.3 µM
TGI (DMS 114 small cell lung): 30.4 µM
TGI (M19-MEL melanoma): 26.6 µM
TGI (DMS 273 small cell lung): 23 µM
TGI (HOP-18 NSCLC): 43.1 µM

CCC1(c2ccncc2)CCC(=O)NC1=O (stereo not given)
TGI (KM20L2 colon): > 100 µM
TGI (DMS 114 small cell lung): > 100 µM
TGI (M19-MEL melanoma): > 100 µM

CCOc1ccccc1N=C(NC(=O)CC)SC
GI50 (KM20L2 colon): > 100 µM
TGI (KM20L2 colon): > 100 µM
TGI (DMS 114 small cell lung): > 10 µM
GI50 (M19-MEL melanoma): > 100 µM
TGI (M19-MEL melanoma): > 100 µM
GI50 (DMS 273 small cell lung): > 100 µM
TGI (DMS 273 small cell lung): > 100 µM
TGI (HOP-18 NSCLC): > 10 µM

CN1C(=O)NC2(O)c3ccccc3C(=O)C12O (stereo not given)
TGI (KM20L2 colon): > 100 µM
TGI (DMS 114 small cell lung): > 100 µM
TGI (M19-MEL melanoma): > 100 µM

CC(C)(C)c1cc2c(OP(c3ccccc3)c3ccccc3)c(c1)Cc1cc(C(C)(C)C)cc(c1OP(c1ccccc1)c1ccccc1)Cc1cc(C(C)(C)C)cc(c1OP(c1ccccc1)c1ccccc1)Cc1cc(C(C)(C)C)cc(c1OP(c1ccccc1)c1ccccc1)C2
GI50 (KM20L2 colon): > 50 µM
TGI (KM20L2 colon): > 50 µM
GI50 (DMS 114 small cell lung): > 50 µM
TGI (DMS 114 small cell lung): > 50 µM
GI50 (M19-MEL melanoma): > 50 µM
TGI (M19-MEL melanoma): > 50 µM
GI50 (DMS 273 small cell lung): > 50 µM
TGI (DMS 273 small cell lung): > 50 µM
TGI (HOP-18 NSCLC): > 5 µM

COC(=O)c1c(C(=O)OC)c(C(=O)OC)c(C(=O)OC)c1C(=O)OC
TGI (KM20L2 colon): > 100 µM
TGI (DMS 114 small cell lung): > 100 µM
TGI (DMS 273 small cell lung): > 100 µM
TGI (HOP-18 NSCLC): > 100 µM

[O-]c1c(-c2ccccc2)[se]c(-c2ccccc2)[n+]1-c1ccccc1
TGI (DMS 114 small cell lung): 18.7 µM
TGI (M19-MEL melanoma): 21.3 µM
TGI (DMS 273 small cell lung): 37.1 µM
TGI (HOP-18 NSCLC): 25.6 µM

Cc1ccc(S(=O)(=O)NC(C)C(=O)O)cc1 (stereo not given)
TGI (KM20L2 colon): > 100 µM
TGI (M19-MEL melanoma): > 100 µM
TGI (DMS 273 small cell lung): > 100 µM
TGI (HOP-18 NSCLC): > 100 µM

COc1cc2c(c(OC)c1OC)C(=O)c1c-2n(CCCN)c(=O)c2cc([N+](=O)[O-])ccc12
GI50 (MDA-MB-435): 1.07 µM
TGI (MDA-MB-435): 2.4 µM
GI50 (BT-549 breast): 1.76 µM
TGI (BT-549 breast): 3.53 µM
GI50 (T-47D breast): 2.48 µM
TGI (T-47D breast): 6.91 µM
GI50 (MCF7 breast): 0.25 µM
GI50 (MDA-MB-231 breast): 1.8 µM
TGI (MDA-MB-231 breast): 4 µM

Cc1ccc2nc(NC(=O)CSC(=S)N3CCN(Cc4ccccc4)CC3)sc2c1
GI50 (MDA-MB-435): > 100 µM
TGI (MDA-MB-435): > 100 µM
GI50 (BT-549 breast): > 100 µM
TGI (BT-549 breast): > 100 µM
GI50 (T-47D breast): 72.3 µM
TGI (T-47D breast): > 100 µM
GI50 (MCF7 breast): 64.5 µM
TGI (MCF7 breast): > 100 µM
GI50 (MDA-MB-231 breast): > 100 µM
TGI (MDA-MB-231 breast): > 100 µM

NC(CCc1nc(-c2ccccc2)cs1)C(=O)O (stereo not given)
TGI (DMS 114 small cell lung): > 100 µM
TGI (M19-MEL melanoma): > 100 µM
TGI (DMS 273 small cell lung): > 100 µM
TGI (HOP-18 NSCLC): > 100 µM
